Measurements reported in patent publication US9593084B2 (Parion Sciences, Inc., priority 2012, dated 2017).
“And” between values parts separate entries of the source, which are not always exact repeats. Identical values can stand only once. “Also recorded” adds a separate entry of the source.

Assays:
[1] = system: Sheep MCC; assay: Mucociliary clearance (MCC) studies in sheep; assay type: in vivo; conditions: for AUC (% CI × h) / Initial Slope (4.0-4.5 h): MCC at 4 h post-dose
Protocol: The animal model that has been used most often to measure changes in MCC is the sheep model. The effect of compounds for enhancing mucociliary clearance (MCC) can be measured using an in vivo model described by Sabater et al., Journal of Applied Physiology, 1999, pp. 2191-2196, incorporated herein by reference.
(§1) In these studies, adult sheep were restrained and nasally intubated with an endotracheal tube. Aerosolized test articles were administered over 10-15 minutes to sheep. Radiolabeled ^99mTc-sulfur colloid (TSC, 3.1 mg/mL; containing approximately 20 mCi) was then administered at a specified time four or eight hours after test article. The radiolabeled aerosol was administered through the endotracheal tube for about 5 minutes. The sheep were then extubated, and total radioactive counts in the lung were measured every 5 minutes for a 1-hour observation period. The rate of radiolabel clearance from the lung is representative of the MCC rate in the animal. The advantage of this system is that it closely simulates the human lung environment. The model also allows for the collection of simultaneous PK/PD information through plasma and urine sampling over the test period. There are also several techniques to measure the drug concentrations on the airway surface during the MCC measurements. These include the collection of exhaled breath condensates or a filter paper method to obtain ASL via bronchoscopy.
The ovine model described above was used to evaluate the in vivo effects (efficacy/durability) of aerosol-delivered test agent on MCC. Treatments consisting of either 4 mL of test agent or test agent in combination with HS were tested. To determine if combining HS with test agent enhanced MCC, HS was administered immediately following test agent administration. Test solutions were aerosolized using a Raindrop nebulizer at a flowrate of eight liters per minute and connected to a dosimetry system consisting of a solenoid valve and a source of compressed air (20 psi). The deposited dose of drug in sheep lungs after an aerosol administration using the Raindrop nebulizer is estimated to be 8-15% of the dose. Using a Raindrop nebulizer, radiolabeled TSC was administered over approximately 3 minutes either 4 or 8 hours after drug treatment to evaluate efficacy/durability. Radioactive counts were measured in a central region in the right lung at 5 min intervals for one hour with a gamma camera. Three methods of analysis were utilized, 1) initial rate of clearance (slope) over the first 30 min fitted using linear regression 2) area under the curve for % clearance over time over one hour, and 3) the maximum clearance obtained in one hour.

[2] = system: human bronchial epithelial (HBE) cells; assay: Airway surface liquid drug clearance and metabolism by human airway epithelium; assay type: in vitro ADME
Protocol: The disappearance of 33 from the apical surface and airway epithelial metabolism were assessed in human bronchial epithelial (HBE) cells (Table 3). In these experiments 25 μL of a 25 μM solution of ENaC blocker was added to the apical surface of HBE cells grown at an air/liquid interface, and the drug and metabolite concentration in the apical and basolateral compartment was measured over 2 h by UPLC.
Therefore, the compounds of formula (I) have a longer half-life on mucosal surfaces compared to these know compounds as evidenced by the data shown in Table G. The disappearance of Compound 33 from the apical surface and airway epithelial metabolism were assessed in HBE and compared to Comparative Example 1 (Table H). In these experiments 25 μL of a 25 μM solution of ENaC blocker was added to the apical surface of HBE cells grown at an air/liquid interface, and the drug concentration in the apical and basolateral compartment was measured over 2 h by UPLC.

[3] = Plasma potassium levels in sheep of the MCC study; assay type: in vivo
Protocol: as §1
The compound of Comparative Example 1 can be seen on page 15 of US 2005/0080093 and as Compound 2 on page 90 of WO 2008/031048, and as Compound 2 on pages 42-43 of WO 2008/031028. […] In order to evaluate this potential, it is beneficial to have MCC activity in vivo and not cause elevation of plasma potassium at the useful dose. One model to assess this is the sheep MCC model described below.

[4] = sheep, solution concentration given beside the dose
[5] = HBE cells at air/liquid interface, 25 μL of 25 μM apical, mean ± SD
[6] = HBE cells, 25 μL of 25 μM apical, parent only

N=C(NCCCCc1ccc(OC[C@H](N)C(N)=O)cc1)NC(=O)c1nc(Cl)c(N)nc1N [Comparative Example 1, (S)-3,5-diamino-6-chloro-N—(N-(4-(4-(2,3-diamino-3-oxopropoxy)phenyl)butyl)carbamimidoyl)pyrazine-2-carboxamide]
ED50 ([1]; Ovis aries, using slope, AUC and Maximum Clearance, read-out: ED50 in the sheep MCC model): ~0.24 µmol/kg
ED50 in the sheep MCC model (solution concentration) ([1]; approximate ED50 dose as concentration of dosing solution): ~3000 µM
AUC (% CI × h) ([1]; sheep, 24 nmol/kg (300 μM)): 6.9 ± 1.0 (3) % CI × h
Initial Slope (4.0-4.5 h) ([1]; sheep, 24 nmol/kg (300 μM)): 14.5 ± 1.3 (3)
AUC (% CI × h) ([1]; sheep, 240 nmol/kg (3 mM)): 14.1 ± 2.2 (6) % CI × h
Initial Slope (4.0-4.5 h) ([1]; sheep, 240 nmol/kg (3 mM)): 32.2 ± 7.3 (6)
MCC Highest Submaximal Dose [1, 4]: 240 nmol/kg (3 mM)
Therapeutic Ratio (Benefit/Risk) ([1]; sheep, top dose without plasma potassium elevation vs MCC highest submaximal dose): 0.1
% of Apical Mass as Metabolites (2 h) [2, 5]: 83% and 83.0 ± 3.5%
% on Basolateral Side as Metabolites (2 h) [2, 5]: 94.7 ± 1.0%
% of Initial Apical Mass on Basolateral Side as Parent (2 h) [2, 6]: (1% Parent)
% of Initial Drug Mass on Apical Side as Parent (2 h) [2, 6]: (8% Parent)
fate on the apical side after 2 h incubation ([2]; HBE cells, apical surface, 37° C.): eliminated from the apical side
effect on plasma potassium ([3]; sheep of the MCC study, at efficacious dose): causes a rise in plasma potassium; also recorded: elevations of plasma K
Top Dose in Sheep with no Elevation of Plasma Potassium [3, 4]: 24 nmol/kg (300 μM)
